Laboratory results reported in patent US20250353891A1 (MEDIMMUNE LIMITED, priority 2022, published 2025).
Starred links: 1 amine or outer side, 2 acyl side, 3 side chain; linkers in the order of their positions; H or OH if unused. Non-standard residues stand in square brackets, D forms with d. Residues, ends and D or L forms follow the SMILES beside them. Groups on a side chain read outwards from the residue. *: point of attachment. PEG12 = NCCOCCOCCOCCOCCOCCOCCOCCOCCOCCOCCOCCOCCC(=O)O; PEG8 = NCCOCCOCCOCCOCCOCCOCCOCCOCCC(=O)O; Dip = N[C@H](C(=O)O)C(c1ccccc1)c1ccccc1; γGlu = O=C(O)[C@H](CCC(=O)[*:2])N[*:1]; Stearoyl = CCCCCCCCCCCCCCCCCC(=O)*; αMeF = C[C@](N)(Cc1ccccc1)C(=O)O; PEG2 = NCCOCCOCCC(=O)O; Aib = CC(C)(N)C(=O)O

How the values were obtained:
[1] = molecular target: human GLP-1 receptor (hGLP-1R) (Homo sapiens, UniProt P43220); assay: cAMP production (HTRF) in CHO cells expressing hGLP-1R; assay type: cell-based; set-up: expressed in transfected cells; conditions: for EC50: Table 6, peptides modified at position 17, cAMP in CHO hGLP-1R cells, geometric mean, read-out: hGLP-1R EC50; for % Relative Potency Ratio: Table 6, % GLP-1R activity relative to GLP-1 / % GlucR activity relative to glucagon
Procedure, shortened: (§1)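 Potency values represent EC50 from 4-parameter logistic curves of HTRF % Delta F signal. Receptor-expressing CHO cells (hGCGR 2×10^5 cells/mL, hGLP-1R 1×10^5 cells/mL) were exposed for 30 min at room temperature before two-step cAMP detection.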

[2] = molecular target: human glucagon receptor (hGCGR) (Homo sapiens, UniProt P47871); assay: cAMP production (HTRF) in CHO cells expressing hGCGR; assay type: cell-based; set-up: expressed in transfected cells; conditions: Table 6, peptides modified at position 17; cAMP in CHO hGCGR cells; geometric mean; read-out: hGluc-R EC50
Procedure, shortened: as §1

Chain of human glucagon receptor (hGCGR) (P47871 26-477): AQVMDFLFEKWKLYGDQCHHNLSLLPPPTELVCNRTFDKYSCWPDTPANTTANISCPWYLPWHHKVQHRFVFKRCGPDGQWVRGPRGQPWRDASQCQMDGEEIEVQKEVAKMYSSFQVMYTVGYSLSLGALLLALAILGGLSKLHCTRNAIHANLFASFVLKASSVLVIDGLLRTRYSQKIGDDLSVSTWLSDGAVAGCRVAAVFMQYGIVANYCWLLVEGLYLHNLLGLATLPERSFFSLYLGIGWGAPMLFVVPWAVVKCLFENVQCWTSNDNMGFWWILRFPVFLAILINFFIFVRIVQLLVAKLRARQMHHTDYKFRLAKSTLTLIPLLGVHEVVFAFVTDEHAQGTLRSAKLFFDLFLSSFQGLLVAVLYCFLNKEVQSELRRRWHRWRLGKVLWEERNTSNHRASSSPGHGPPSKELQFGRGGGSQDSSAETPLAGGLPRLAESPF
Chain of human GLP-1 receptor (hGLP-1R) (P43220 24-463): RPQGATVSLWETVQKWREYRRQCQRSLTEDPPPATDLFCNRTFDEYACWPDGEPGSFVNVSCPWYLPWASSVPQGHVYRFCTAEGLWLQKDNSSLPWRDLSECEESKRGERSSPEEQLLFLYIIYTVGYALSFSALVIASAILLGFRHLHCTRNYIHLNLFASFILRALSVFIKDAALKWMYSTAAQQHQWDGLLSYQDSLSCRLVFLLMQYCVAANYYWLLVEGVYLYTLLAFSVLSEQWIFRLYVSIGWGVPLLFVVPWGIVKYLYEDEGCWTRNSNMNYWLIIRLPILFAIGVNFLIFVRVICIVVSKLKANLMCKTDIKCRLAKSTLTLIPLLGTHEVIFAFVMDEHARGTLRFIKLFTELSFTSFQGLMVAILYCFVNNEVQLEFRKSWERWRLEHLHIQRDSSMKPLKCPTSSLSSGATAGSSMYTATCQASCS

EC50 [1] [nM]	% Relative Potency Ratio [1]	EC50 [2] [nM]	Structure (SMILES)
0.00909	3.7	0.0169	CCCCCCCCCCCCCCCCCC(=O)N[C@@H](CCC(=O)N[C@@H](CCC(=O)NCCOCCOCCOCCOCCOCCOCCOCCOCCC(=O)NCCCC[C@H](NC(=O)[C@H](CO)NC(=O)[C@H](CC(=O)O)NC(=O)[C@H](CC(C)C)NC(=O)[C@@H](NC(=O)[C@H](CCCCN)NC(=O)[C@H](CO)NC(=O)[C@@H](NC(=O)[C@H](CC(=O)O)NC(=O)[C@H](CO)NC(=O)[C@@H](NC(=O)[C@](C)(Cc1ccccc1)NC(=O)[C@H](CO)NC(=O)CNC(=O)[C@H](CCC(N)=O)NC(=O)[C@H](CO)NC(=O)[C@@H](N)Cc1c[nH]cn1)[C@@H](C)O)C(C)C)C(c1ccccc1)c1ccccc1)C(=O)N[C@@H](C)C(=O)N[C@@H](C)C(=O)N[C@@H](CCC(N)=O)C(=O)N[C@@H](CC(=O)O)C(=O)N[C@@](C)(Cc1ccccc1)C(=O)N[C@H](C(=O)N[C@@H](CCC(=O)O)C(=O)NC(C)(C)C(=O)N[C@H](C(=O)N[C@H](C(=O)N[C@@H](CC(N)=O)C(=O)N[C@H](C(N)=O)[C@@H](C)O)[C@@H](C)CC)[C@@H](C)CC)C(C)C)C(=O)O)C(=O)O [Peptide 57] (H-HSQGS[αMeF]TSDVSK[Dip]LDSK([PEG8-γGlu-γGlu-Stearoyl])AAQD[αMeF]VE[Aib]IINT-NH2; N-terminus assumed)
0.0039	5.7	0.0113	CCCCCCCCCCCCCCCCCC(=O)N[C@@H](CCC(=O)N[C@@H](CCC(=O)NCCOCCOCCOCCOCCOCCOCCOCCOCCOCCOCCOCCOCCC(=O)NCCCC[C@H](NC(=O)[C@H](CO)NC(=O)[C@H](CC(=O)O)NC(=O)[C@H](CC(C)C)NC(=O)[C@@H](NC(=O)[C@H](CCCCN)NC(=O)[C@H](CO)NC(=O)[C@@H](NC(=O)[C@H](CC(=O)O)NC(=O)[C@H](CO)NC(=O)[C@@H](NC(=O)[C@](C)(Cc1ccccc1)NC(=O)[C@H](CO)NC(=O)CNC(=O)[C@H](CCC(N)=O)NC(=O)[C@H](CO)NC(=O)[C@@H](N)Cc1c[nH]cn1)[C@@H](C)O)C(C)C)C(c1ccccc1)c1ccccc1)C(=O)N[C@@H](C)C(=O)N[C@@H](C)C(=O)N[C@@H](CCC(N)=O)C(=O)N[C@@H](CC(=O)O)C(=O)N[C@@](C)(Cc1ccccc1)C(=O)N[C@H](C(=O)N[C@@H](CCC(=O)O)C(=O)NC(C)(C)C(=O)N[C@H](C(=O)N[C@H](C(=O)N[C@@H](CC(N)=O)C(=O)N[C@H](C(N)=O)[C@@H](C)O)[C@@H](C)CC)[C@@H](C)CC)C(C)C)C(=O)O)C(=O)O [Peptide 58] (H-HSQGS[αMeF]TSDVSK[Dip]LDSK([PEG12-γGlu-γGlu-Stearoyl])AAQD[αMeF]VE[Aib]IINT-NH2; N-terminus assumed)
0.00618	9.1	0.0284	CCCCCCCCCCCCCCCCCC(=O)NCCOCCOCCC(=O)NCCOCCOCCC(=O)N[C@@H](CCC(=O)N[C@@H](CCC(=O)NCCCC[C@H](NC(=O)[C@H](CO)NC(=O)[C@H](CC(=O)O)NC(=O)[C@H](CC(C)C)NC(=O)[C@@H](NC(=O)[C@H](CCCCN)NC(=O)[C@H](CO)NC(=O)[C@@H](NC(=O)[C@H](CC(=O)O)NC(=O)[C@H](CO)NC(=O)[C@@H](NC(=O)[C@](C)(Cc1ccccc1)NC(=O)[C@H](CO)NC(=O)CNC(=O)[C@H](CCC(N)=O)NC(=O)[C@H](CO)NC(=O)[C@@H](N)Cc1c[nH]cn1)[C@@H](C)O)C(C)C)C(c1ccccc1)c1ccccc1)C(=O)N[C@@H](C)C(=O)N[C@@H](C)C(=O)N[C@@H](CCC(N)=O)C(=O)N[C@@H](CC(=O)O)C(=O)N[C@@](C)(Cc1ccccc1)C(=O)N[C@H](C(=O)N[C@@H](CCC(=O)O)C(=O)NC(C)(C)C(=O)N[C@H](C(=O)N[C@H](C(=O)N[C@@H](CC(N)=O)C(=O)N[C@H](C(N)=O)[C@@H](C)O)[C@@H](C)CC)[C@@H](C)CC)C(C)C)C(=O)O)C(=O)O [Peptide 59] (H-HSQGS[αMeF]TSDVSK[Dip]LDSK([γGlu-γGlu-PEG2-PEG2-Stearoyl])AAQD[αMeF]VE[Aib]IINT-NH2; N-terminus assumed)
